US12053470B2, “Pharmaceutical combination comprising an ALK inhibitor and a SHP2 inhibitor” (Novartis AG, priority 2017, dated 2024)
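Note: tested compounds are SHP2 inhibitors given alone, colonies fixed and crystal violet stained, DMSO reference taken as the mean of six readings.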

What follows are compounds tested on Ceritinib resistant MGH049 cells (assay: Cell colony formation assay with ceritinib resistant MGH049 cells). Details: Homo sapiens, 168 h; compound of Table 1 (3 μM) alone, 7 days; normalized to DMSO without compound = 100; read-out: Normalized Crystal Violet abs. (590 nm) DMSO.
Format: cell-based, human
With `CC1(N)CCN(c2cnc(Sc3cccc(NC(=O)c4c(O)nc5ccccn5c4=O)c3Cl)c(N)n2)CC1` [Compound No. 44, N-(3-((3-amino-5-(4-amino-4-methylpiperidin-1-yl)pyrazin-2-yl)thio)-2-chlorophenyl)-2-hydroxy-4-oxo-4H-pyrido[1,2-a]pyrimidine-3-carboxamide] the activity at 3 µM was 37%.
`NCC1(c2ccccc2)CCN(c2cnc(-c3cccc(Cl)c3Cl)c(N)n2)CC1` [compound 2, 6-(4-(aminomethyl)-4-phenylpiperidin-1-yl)-3-(2,3-dichlorophenyl)pyrazin-2-amine] was tested, and the activity at 3 µM was 67%.
`Nc1nc(N2CCC3(CCC[C@H]3N)CC2)cnc1Sc1ccnc(N)c1Cl` [compound 6, (R)-8-(6-amino-5-((2-amino-3-chloropyridin-4-yl)thio)pyrazin-2-yl)-8-azaspiro[4.5]decan-1-amine] was tested, and the activity at 3 µM was 44.5%.
In the case of `Nc1nc(N2CCC3(CC2)COC[C@H]3N)cnc1Sc1ccnc(N)c1Cl` [compound 11, (S)-8-(6-amino-5-((2-amino-3-chloropyridin-4-yl)thio)pyrazin-2-yl)-2-oxa-8-azaspiro[4.5]decan-4-amine], the activity at 3 µM is reported as 58.9%.
Compound `C[C@H]1C[C@@H](N)C2(CCN(c3cnc(Sc4ccnc(N)c4Cl)c(N)n3)CC2)C1` [compound 12, (1R,3R)-8-(6-amino-5-((2-amino-3-chloropyridin-4-yl)thio)pyrazin-2-yl)-3-methyl-8-azaspiro[4.5]decan-1-amine] has an activity at 3 µM of 30.1%.
Compound `Nc1nc(N2CCC3(CC2)C[C@H](O)C[C@H]3N)cnc1Sc1ccnc(Cl)c1Cl` [compound 13, (2S,4R)-4-amino-8-(6-amino-5-((2,3-dichloropyridin-4-yl)thio)pyrazin-2-yl)-8-azaspiro[4.5]decan-2-ol] has an activity at 3 µM of 42.8%.
`Nc1nc(N2CCC3(CC2)C[C@@H](O)C[C@H]3N)cnc1Sc1ccnc(Cl)c1Cl` [compound 14, (2R,4R)-4-amino-8-(6-amino-5-((2,3-dichloropyridin-4-yl)thio)pyrazin-2-yl)-8-azaspiro[4.5]decan-2-ol] was tested, and the activity at 3 µM was 51.2%.
Compound `C[C@@H]1OCC2(CCN(c3cnc(Sc4ccnc(N)c4Cl)c(N)n3)CC2)[C@@H]1N` [compound 16, (3S,4S)-8-(6-amino-5-((2-amino-3-chloropyridin-4-yl)thio)pyrazin-2-yl)-3-methyl-2-oxa-8-azaspiro[4.5]decan-4-amine] has an activity at 3 µM of 34.4%.
`C[C@@H]1OCC2(CCN(c3nc(N)c(Sc4cccnc4C(F)(F)F)c(=O)n3C)CC2)[C@@H]1N` [compound 25, 6-amino-2-((3S,4S)-4-amino-3-methyl-2-oxa-8-azaspiro[4.5]decan-8-yl)-3-methyl-5-((2-(trifluoromethyl)pyridin-3-yl)thio)pyrimidin-4(3H)-one] gave an activity at 3 µM of 52.5%.
In the case of `C[C@@H]1OCC2(CCN(c3nc(N)c(Sc4cccc(Cl)c4Cl)c(=O)n3C)CC2)[C@@H]1N` [compound 27, 6-amino-2-((3S,4S)-4-amino-3-methyl-2-oxa-8-azaspiro[4.5]decan-8-yl)-5-((2,3-dichlorophenyl)thio)-3-methylpyrimidin-4(3H)-one], the activity at 3 µM is reported as 37.8%.
`C[C@H]1C[C@@H](N)C2(CCN(c3nc(N)c(Sc4ccncc4C(F)(F)F)c(=O)n3C)CC2)C1` [compound 28, 6-amino-2-((1R,3R)-1-amino-3-methyl-8-azaspiro[4.5]decan-8-yl)-3-methyl-5-((3-(trifluoromethyl)pyridin-4-yl)thio)pyrimidin-4(3H)-one] gave an activity at 3 µM of 28.1%.
Work on `C[C@H]1C[C@@H](N)C2(CCN(c3nc(N)c(-c4cccc(Cl)c4Cl)c(=O)n3C)CC2)C1` [compound 29, 6-amino-2-((1R,3R)-1-amino-3-methyl-8-azaspiro[4.5]decan-8-yl)-5-(2,3-dichlorophenyl)-3-methylpyrimidin-4(3H)-one] yielded an activity at 3 µM of 25.1%.
`COc1cccc(Sc2c(N)nc(N3CCC4(CC3)CO[C@@H](C)[C@H]4N)n(C)c2=O)c1Cl` [compound 30, 6-amino-2-((3S,4S)-4-amino-3-methyl-2-oxa-8-azaspiro[4.5]decan-8-yl)-5-((2-chloro-3-methoxyphenyl)thio)-3-methylpyrimidin-4(3H)-one] gave an activity at 3 µM of 39.4%.
For `CC[C@@H]1OCC2(CCN(c3nc(N)c(Sc4cccnc4C(F)(F)F)c(=O)n3C)CC2)[C@@H]1N` [compound 31, 6-amino-2-((3S,4S)-4-amino-3-ethyl-2-oxa-8-azaspiro[4.5]decan-8-yl)-3-methyl-5-((2-(trifluoromethyl)pyridin-3-yl)thio)pyrimidin-4(3H)-one], the activity at 3 µM was 36.4%.
`C[C@@H]1OCC2(CCN(c3nc(N)c(Sc4cccc(N)c4C(F)(F)F)c(=O)n3C)CC2)[C@@H]1N` [compound 32, 6-amino-5-((3-amino-2-(trifluoromethyl)phenyl)thio)-2-((3S,4S)-4-amino-3-methyl-2-oxa-8-azaspiro[4.5]decan-8-yl)-3-methylpyrimidin-4(3H)-one] was tested, and the activity at 3 µM was 58.2%.
`Cn1c(N2CCC3(CC2)CC(F)(F)C[C@H]3N)nc(N)c(Sc2ccnc(N)c2Cl)c1=O` [compound 33, (R)-6-amino-2-(1-amino-3,3-difluoro-8-azaspiro[4.5]decan-8-yl)-5-((2-amino-3-chloropyridin-4-yl)thio)-3-methylpyrimidin-4(3H)-one] was tested, and the activity at 3 µM was 73.3%.
With `C[C@@H]1OCC2(CCN(c3nc(N)c(Sc4ccncc4C(F)(F)F)c(=O)n3C)CC2)[C@@H]1N` [compound 34, 6-amino-2-((3S,4S)-4-amino-3-methyl-2-oxa-8-azaspiro[4.5]decan-8-yl)-3-methyl-5-((3-(trifluoromethyl)pyridin-4-yl)thio)pyrimidin-4(3H)-one] the activity at 3 µM was 43.6%.
`C[C@H]1C[C@@H](N)C2(CCN(c3nc(N)c(-c4ccc(Cl)cc4)c(=O)n3C)CC2)C1` [compound 35, 6-amino-2-((1R,3R)-1-amino-3-methyl-8-azaspiro[4.5]decan-8-yl)-5-(4-chlorophenyl)-3-methylpyrimidin-4(3H)-one] was tested, and the activity at 3 µM was 32.2%.
With `C[C@H]1C[C@@H](N)C2(CCN(c3nc(N)c(-c4ccccc4)c(=O)n3C)CC2)C1` [compound 36, 6-amino-2-((1R,3R)-1-amino-3-methyl-8-azaspiro[4.5]decan-8-yl)-3-methyl-5-phenylpyrimidin-4(3H)-one] the activity at 3 µM was 23.8%.
Compound `CC1(CN)CCN(c2nc3[nH]cc(-c4cccc(Cl)c4Cl)c3c(=O)[nH]2)CC1` [compound 38, 2-(4-(aminomethyl)-4-methylpiperidin-1-yl)-5-(2,3-dichlorophenyl)-3,7-dihydro-4H-pyrrolo[2,3-d]pyrimidin-4-one] has an activity at 3 µM of 83.9%.
For `C[C@@H]1OCC2(CCN(c3cnc4c(-c5ccnc(Cl)c5Cl)n[nH]c4n3)CC2)[C@@H]1N` [compound 39, (3S,4S)-8-(3-(2,3-dichloropyridin-4-yl)-1H-pyrazolo[3,4-b]pyrazin-6-yl)-3-methyl-2-oxa-8-azaspiro[4.5]decan-4-amine], the activity at 3 µM was 97.9%.
With `Cc1nc(N)ccc1-c1[nH]nc2nc(N3CCC4(CC3)C[C@@H](C)C[C@H]4N)n(C)c(=O)c12` [compound 40, 3-(6-amino-2-methylpyridin-3-yl)-6-((1R,3R)-1-amino-3-methyl-8-azaspiro[4.5]decan-8-yl)-5-methyl-2,5-dihydro-4H-pyrazolo[3,4-d]pyrimidin-4-one] the activity at 3 µM was 22.4%.
`Cc1nc(N)ccc1-c1[nH]nc2nc(N3CCC4(CC3)CC(F)(F)C[C@H]4N)n(C)c(=O)c12` [compound 41, (R)-3-(6-amino-2-methylpyridin-3-yl)-6-(1-amino-3,3-difluoro-8-azaspiro[4.5]decan-8-yl)-5-methyl-2,5-dihydro-4H-pyrazolo[3,4-d]pyrimidin-4-one] was tested, and the activity at 3 µM was 25.3%.
For `COc1nccc(-c2c[nH]c3nc(N4CCC5(CC4)CO[C@@H](C)[C@H]5N)n(C)c(=O)c23)c1Cl` [compound 43, 2-((3S,4S)-4-amino-3-methyl-2-oxa-8-azaspiro[4.5]decan-8-yl)-5-(3-chloro-2-methoxypyridin-4-yl)-3-methyl-3,7-dihydro-4H-pyrrolo[2,3-d]pyrimidin-4-one], the activity at 3 µM was 95.6%.
`C[C@@H]1OCC2(CCN(c3cnc(Sc4cccc(NC(=O)c5c(O)nc6n(c5=O)CCCC6)c4Cl)c(N)n3)CC2)[C@@H]1N` [compound 45, N-(3-((3-amino-5-((3S,4S)-4-amino-3-methyl-2-oxa-8-azaspiro[4.5]decan-8-yl)pyrazin-2-yl)thio)-2-chlorophenyl)-2-hydroxy-4-oxo-6,7,8,9-tetrahydro-4H-pyrido[1,2-a]pyrimidine-3-carboxamide] was tested, and the activity at 3 µM was 12.1%.
`Nc1nc(N2CCC3(CCC[C@H]3N)CC2)cnc1Sc1cccc(NC(=O)c2c(O)nc3n(c2=O)CCCC3)c1Cl` [compound 47, (R)-N-(3-((3-amino-5-(1-amino-8-azaspiro[4.5]decan-8-yl)pyrazin-2-yl)thio)-2-chlorophenyl)-2-hydroxy-4-oxo-6,7,8,9-tetrahydro-4H-pyrido[1,2-a]pyrimidine-3-carboxamide] gave an activity at 3 µM of 14.8%.
`CC1(CN)CCN(c2cnc(Sc3cccc(NC(=O)c4c(O)nc5n(c4=O)CCCC5)c3Cl)c(N)n2)CC1` [compound 48, N-(3-((3-amino-5-(4-(aminomethyl)-4-methylpiperidin-1-yl)pyrazin-2-yl)thio)-2-chlorophenyl)-2-hydroxy-4-oxo-6,7,8,9-tetrahydro-4H-pyrido[1,2-a]pyrimidine-3-carboxamide] gave an activity at 3 µM of 52.3%.
For `Nc1nc(N2CCC3(CC2)CC(F)(F)C[C@H]3N)cnc1Sc1cccc(NC(=O)c2c(O)nc3n(c2=O)CCCC3)c1Cl` [compound 49, (R)-N-(3-((3-amino-5-(1-amino-3,3-difluoro-8-azaspiro[4.5]decan-8-yl)pyrazin-2-yl)thio)-2-chlorophenyl)-2-hydroxy-4-oxo-6,7,8,9-tetrahydro-4H-pyrido[1,2-a]pyrimidine-3-carboxamide], the activity at 3 µM was 26.5%.
`CC1(CN)CCN(c2cnc(Sc3cccc(NC(=O)c4c(O)nc5ccccn5c4=O)c3Cl)c(N)n2)CC1` [compound 50, N-(3-((3-amino-5-(4-(aminomethyl)-4-methylpiperidin-1-yl)pyrazin-2-yl)thio)-2-chlorophenyl)-2-hydroxy-4-oxo-4H-pyrido[1,2-a]pyrimidine-3-carboxamide] was tested, and the activity at 3 µM was 98.9%.
